Assay results: PubChem BioAssay (NCI)
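Cultured in 96-well plates, cells were exposed to test compound for 48 hours across five concentrations. The concentration for 50% growth inhibition is given as GI50. TGI is the concentration that stops growth completely.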

Legend:
Test in all cases: inhibition of tumour cell growth, NCI panel, 48 h
786-0 renal = system: 786-0 renal
A498 renal = system: A498 renal
A549 NSCLC = system: A549 NSCLC
ACHN renal = system: ACHN renal
BT-549 breast = system: BT-549 breast
CAKI-1 renal = system: CAKI-1 renal
CCRF-CEM leukemia = system: CCRF-CEM leukemia
COLO 205 colon = system: COLO 205 colon
DU-145 prostate = system: DU-145 prostate
HCC-2998 colon = system: HCC-2998 colon
HCT-116 colon = system: HCT-116 colon
HCT-15 colon = system: HCT-15 colon
HL-60(TB) leukemia = system: HL-60(TB) leukemia
HOP-62 NSCLC = system: HOP-62 NSCLC
HS 578T breast = system: HS 578T breast
HT29 colon = system: HT29 colon
IGROV1 ovarian = system: IGROV1 ovarian
K-562 leukemia = system: K-562 leukemia
KM12 colon = system: KM12 colon
LOX IMVI melanoma = system: LOX IMVI melanoma
M14 melanoma = system: M14 melanoma
MCF7 breast = system: MCF7 breast
MDA-MB-231 breast = system: MDA-MB-231 breast
MDA-MB-435 = system: MDA-MB-435
MOLT-4 leukemia = system: MOLT-4 leukemia
NCI-H226 lung = system: NCI-H226 lung
NCI-H460 lung = system: NCI-H460 lung
NCI-H522 lung = system: NCI-H522 lung
NCI/ADR-RES ovarian = system: NCI/ADR-RES ovarian
OVCAR-3 ovarian = system: OVCAR-3 ovarian
OVCAR-4 ovarian = system: OVCAR-4 ovarian
OVCAR-5 ovarian = system: OVCAR-5 ovarian
OVCAR-8 ovarian = system: OVCAR-8 ovarian
PC-3 prostate = system: PC-3 prostate
RPMI-8226 leukemia = system: RPMI-8226 leukemia
RXF 393 renal = system: RXF 393 renal
SF-268 CNS = system: SF-268 CNS
SF-295 CNS = system: SF-295 CNS
SF-539 CNS = system: SF-539 CNS
SK-MEL-2 melanoma = system: SK-MEL-2 melanoma
SK-MEL-28 melanoma = system: SK-MEL-28 melanoma
SK-MEL-5 melanoma = system: SK-MEL-5 melanoma
SK-OV-3 ovarian = system: SK-OV-3 ovarian
SN12C renal = system: SN12C renal
SNB-19 CNS = system: SNB-19 CNS
SNB-75 CNS = system: SNB-75 CNS
SR leukemia = system: SR leukemia
SW-620 colon = system: SW-620 colon
U251 CNS = system: U251 CNS
UACC-257 melanoma = system: UACC-257 melanoma
UACC-62 melanoma = system: UACC-62 melanoma
UO-31 renal = system: UO-31 renal
EKVX NSCLC = system: EKVX NSCLC
HOP-92 NSCLC = system: HOP-92 NSCLC
MALME-3M melanoma = system: MALME-3M melanoma
TK-10 renal = system: TK-10 renal

## O=C1C=C(Nc2ccc([N+](=O)[O-])cc2)c2ccccc2C1=O
786-0 renal
  GI50: 11.6 µM
  TGI: 33.8 µM
A498 renal
  GI50: 1.47 µM
  TGI: 6.75 µM
A549 NSCLC
  GI50: 3.96 µM
  TGI: 16.5 µM
ACHN renal
  GI50: 4.3 µM
  TGI: 17.7 µM
BT-549 breast
  GI50: 3.56 µM
  TGI: 14.5 µM
CAKI-1 renal
  GI50: 3.87 µM
  TGI: 19 µM
CCRF-CEM leukemia
  GI50: 3.9 µM
  TGI: 26 µM
COLO 205 colon
  GI50: 17.4 µM
  TGI: 34.8 µM
DU-145 prostate
  GI50: 6.94 µM
  TGI: 19.6 µM
HCC-2998 colon
  GI50: 9.09 µM
  TGI: 22.4 µM
HCT-116 colon
  GI50: 2.79 µM
  TGI: 12.4 µM
HCT-15 colon
  GI50: 2.42 µM
  TGI: 15.4 µM
HL-60(TB) leukemia
  GI50: 2.67 µM
  TGI: 7.19 µM
HOP-62 NSCLC
  GI50: 5.69 µM
  TGI: 19.6 µM
HS 578T breast
  GI50: 1.78 µM
  TGI: 9.96 µM
HT29 colon
  GI50: 18.6 µM
  TGI: 42.3 µM
IGROV1 ovarian
  GI50: 5.99 µM
  TGI: 20.8 µM
K-562 leukemia
  GI50: 0.569 µM
  TGI: 15.3 µM
KM12 colon
  GI50: 3.3 µM
  TGI: 16.4 µM
LOX IMVI melanoma
  GI50: 2.34 µM
  TGI: 7.47 µM
M14 melanoma
  GI50: 3.49 µM
  TGI: 16.7 µM
MCF7 breast
  GI50: 2.49 µM
  TGI: 13.9 µM
MDA-MB-231 breast
  GI50: 1.72 µM
  TGI: 13.2 µM
MDA-MB-435
  GI50: 0.392 µM
  TGI: 1.41 µM
MOLT-4 leukemia
  GI50: 3.55 µM
  TGI: 12.7 µM
NCI-H226 lung
  GI50: 12.6 µM
  TGI: 28.1 µM
NCI-H460 lung
  GI50: 4.45 µM
  TGI: 17.2 µM
NCI-H522 lung
  GI50: 2.91 µM
  TGI: 14.4 µM
NCI/ADR-RES ovarian
  GI50: 2.93 µM
  TGI: 29.3 µM
OVCAR-3 ovarian
  GI50: 2.07 µM
  TGI: 7.03 µM
OVCAR-4 ovarian
  GI50: 2.07 µM
  TGI: 11.2 µM
OVCAR-5 ovarian
  GI50: 13.3 µM
  TGI: 27.5 µM
OVCAR-8 ovarian
  GI50: 2.74 µM
  TGI: 12.6 µM
PC-3 prostate
  GI50: 3.7 µM
  TGI: 47.1 µM
RPMI-8226 leukemia
  GI50: 3.37 µM
  TGI: 22.4 µM
RXF 393 renal
  GI50: 6.6 µM
  TGI: 22.5 µM
SF-268 CNS
  GI50: 5.39 µM
  TGI: 20.6 µM
SF-295 CNS
  GI50: 4.93 µM
  TGI: 18 µM
SF-539 CNS
  GI50: 3.5 µM
  TGI: 14.7 µM
SK-MEL-2 melanoma
  GI50: 2.12 µM
  TGI: 8.47 µM
SK-MEL-28 melanoma
  GI50: 3.75 µM
  TGI: 16.6 µM
SK-MEL-5 melanoma
  GI50: 1.56 µM
  TGI: 3.47 µM
SK-OV-3 ovarian
  GI50: 11.6 µM
  TGI: 27.1 µM
SN12C renal
  GI50: 3.92 µM
  TGI: 15.1 µM
SNB-19 CNS
  GI50: 4.71 µM
  TGI: 18.1 µM
SNB-75 CNS
  GI50: 1.19 µM
  TGI: 9.91 µM
SR leukemia
  GI50: 2.55 µM
  TGI: > 100 µM
SW-620 colon
  GI50: 2.47 µM
  TGI: 15.5 µM
U251 CNS
  GI50: 3.07 µM
  TGI: 12.9 µM
UACC-257 melanoma
  GI50: 3.14 µM
  TGI: 13.8 µM
UACC-62 melanoma
  GI50: 1.9 µM
  TGI: 5.88 µM
UO-31 renal
  GI50: 1.85 µM
  TGI: 12.5 µM

## Cc1ccc(-c2c(C#N)c(-c3ccccc3)c(C#N)c(=O)n2NS(=O)(=O)c2ccc(C)cc2)cc1
786-0 renal
  TGI: > 100 µM
A498 renal
  TGI: > 100 µM
A549 NSCLC
  TGI: > 100 µM
ACHN renal
  TGI: > 100 µM
BT-549 breast
  TGI: > 100 µM
CAKI-1 renal
  TGI: > 100 µM
CCRF-CEM leukemia
  TGI: 89.7 µM
COLO 205 colon
  TGI: > 100 µM
EKVX NSCLC
  TGI: > 100 µM
HCC-2998 colon
  TGI: > 100 µM
HCT-116 colon
  TGI: > 100 µM
HCT-15 colon
  TGI: > 100 µM
HOP-62 NSCLC
  TGI: > 100 µM
HOP-92 NSCLC
  TGI: > 100 µM
HS 578T breast
  TGI: > 100 µM
HT29 colon
  TGI: > 100 µM
IGROV1 ovarian
  TGI: > 100 µM
K-562 leukemia
  TGI: > 100 µM
KM12 colon
  TGI: > 100 µM
LOX IMVI melanoma
  TGI: > 100 µM
M14 melanoma
  TGI: > 100 µM
MALME-3M melanoma
  TGI: > 100 µM
MCF7 breast
  TGI: > 100 µM
MDA-MB-231 breast
  TGI: > 100 µM
MDA-MB-435
  TGI: > 100 µM
MOLT-4 leukemia
  TGI: 41.1 µM
NCI-H226 lung
  TGI: > 100 µM
NCI-H460 lung
  TGI: > 100 µM
NCI-H522 lung
  TGI: > 100 µM
NCI/ADR-RES ovarian
  TGI: > 100 µM
OVCAR-4 ovarian
  TGI: > 100 µM
OVCAR-5 ovarian
  TGI: > 100 µM
OVCAR-8 ovarian
  TGI: > 100 µM
PC-3 prostate
  TGI: > 100 µM
RPMI-8226 leukemia
  TGI: 8.79 µM
RXF 393 renal
  TGI: > 100 µM
SF-268 CNS
  TGI: > 100 µM
SF-295 CNS
  TGI: > 100 µM
SF-539 CNS
  TGI: > 100 µM
SK-MEL-2 melanoma
  TGI: > 100 µM
SK-MEL-28 melanoma
  TGI: > 100 µM
SK-MEL-5 melanoma
  TGI: 31.9 µM
SK-OV-3 ovarian
  TGI: > 100 µM
SN12C renal
  TGI: > 100 µM
SNB-19 CNS
  TGI: 33.5 µM
SNB-75 CNS
  TGI: > 100 µM
SW-620 colon
  TGI: > 100 µM
TK-10 renal
  TGI: > 100 µM
U251 CNS
  TGI: > 100 µM
UACC-257 melanoma
  TGI: > 100 µM
UACC-62 melanoma
  TGI: > 100 µM
